“And” between values parts separate entries of the source, which are not always exact repeats. Equal entries are not always repeated. “Also recorded” adds a separate entry of the source.
Tests used:
IL6 [1] = assay: Serum IL6 by DuoSet ELISA pre and post heterotopic heart transplant; assay type: in vivo, cynomolgus monkeys
Experimental: IL1β and IL6 can be measured using the DuoSet ELISA development kits from R&D Systems (Minneapolis, Minn.), following the directions of the manufacturer. Briefly, plates are coated with capture antibody [mouse anti-human IL1β (2 μg/ml) or mouse anti-human IL6 (4 μg/ml)] and detection antibodies are used at 100 ng/ml (biotinylated goat anti-human IL1β) or 200 ng/ml (biotinylated goat anti-human IL6). Standards are prepared with recombinant protein (3.9-250 pg/ml for IL1β and 4.7-300 pg/ml for IL6). Streptavidin conjugated to horseradish peroxidase and H2O2/tetramethylbenzidine are used for color development. Optical density (OD) is measured at 450 nm, with correction at 570 nm.
Serum samples were taken from the cynomolgus monkeys in Example 1 at various time points pre- and post-transplantation. The samples were diluted 1:2, in PBS/0.1% BSA/0.05% Tween 20. (PBS=phosphate buffered saline; BSA=bovine serum albumin.) IL6 levels (pg/ml) in pre and post heterotopic heart transplant in serum from the cynomolgus monkeys treated with Compound A were determined obtained in accordance with the above-described procedure.

[2] = tested on: Cynomolgus macaques (Macaca fascicularis); assay: Fever suppression after cardiac allotransplantation (telemetry body temperature, behaviour); assay type: in vivo; conditions: for monkeys that did not develop a fever (temperature greater than 38.5° C.): while recovering from transplantation, seven monkeys treated with CCR5 antagonist (alone or with cyclosporin)
[3] = tested on: IL6 mRNA expression in RANTES-stimulated macrophages; assay: Cytokine mRNA expression (TaqMan) in RANTES-stimulated human macrophages: IL6; assay type: cell-based; conditions: RANTES 250 nM
Experimental: (§1) Human monocytes were isolated white blood cells concentrated from units of blood (i.e., leukopaks) from normal donors. To enhance CCR5 expression, the monocytes were cultured under suspension conditions in Teflon jars for 2 days in media supplemented with 12% fetal bovine serum. 10^6 cells were seeded and allowed to attach for over 2 hours in 6-well tissue culture plates. Cells were pre-incubated with either dimethylsulfoxide (DMSO; vehicle control) or Compound A at various concentrations for 1 hour, after which RANTES (the CCR5 agonist/ligand; Pepro Tech Inc.) was added at 250 nM, or, alternatively, media was added as a control. The cells were incubated at 37° C. for 24 hours, after which the media were removed and centrifuged to precipitate the non-adherent cells. Both the adhered and non-adhered cells were lysed and subjected to mRNA isolation, and the mRNA isolate was analyzed for cytokine expression by quantitative real time PCR (TaqMan). The relative mRNA-fold induction of cytokine gene expression in the RANTES-stimulated macrophages was calculated relative to day 2 non-stimulated, non-treated controls (i.e. fold induction=1 on day 2 for controls), as well as fold mRNA induction relative to vehicle (DMSO) (0 nM) control RANTES stimulated cells.

CCR5+ cells = assay: Double-label immunofluorescence microscopy of leukocytes infiltrating rejecting allografts; assay type: in vivo, Macaca fascicularis; conditions: in association with CCR5 blockade
Excerpt: Double-label immunofluorescence microscopy using antibodies specific for CD3, CD68, CD11b, CCR5 and CXCR3 was used to characterize leukocyte populations infiltrating acutely rejecting (days 4, 6) cynomolgus cardiac allografts. CCR5 and CXCR3 are prominent on monocytes/macrophages and to a lesser extent on T-cells in rejecting cynomolgus heart allografts. Co-localization of CCR5 and CXCR3 to the same cells was common, particularly on the […] monocyte/macrophage population. Infiltration of CCR5+ cells was inhibited in association with CCR5 blockade. Graft failure was identified by a decrease in heart rate and ST elevation (associated with ischemia) on EKG and a decrease in arterial line pressure. […] (Note: n=7 refers to the data for the 3 control (i.e., saline) monkeys in this experiment plus data for 4 animals from a historic database that were scored as controls in which cyno cardiac allografts were rejected in the absense of immunosupression in a manner identical to the three controls in this experiment.)

[4] = tested on: IL1-beta mRNA expression in RANTES-stimulated macrophages; assay: Cytokine mRNA expression (TaqMan) in RANTES-stimulated human macrophages: IL1-beta; assay type: cell-based; conditions: RANTES 250 nM
Experimental: as §1

IL6 [5] = assay: Cytometric Bead Array Human Inflammation Kit, serum/plasma on day of explant: IL6; assay type: in vivo, cynomologous monkeys
Experimental: (§2) Serum and plasma samples taken from the cynomologous monkeys in Example 1 on the day of explant (i.e., the day of graft rejection) were analyzed using the BD Pharmingen Cytometric Bead Array Human Inflammation Kit, which can measure IL1-β, IL6, IL8, IL10, IL12p70 and TNF-α. Reagents to detect IL6, IL8 and TNF-α have been shown by the manufacturer to cross react with rhesus and cynomologus monkey proteins. At the time of the assay, reagents to measure IL1-beta and IL12p70 had not yet been tested for cross reactivity to non-human primate proteins.
Samples were assayed in the manner described in the manufacturer's protocol booklet; i.e., “Human Inflammation Kit—Instruction Manual” (BD Biosciences, Cat. No. 551811, pdf copy available at www.bdbiosciences.com). Briefly, assay standards were reconstituted with assay diluent and diluted in two fold steps by serial dilution. Capture beads were mixed and distributed into an appropriate number of 12×75 mm polystyrene tubes. Standards or samples were added to the tubes and incubated in the dark at room temperature for 1.5 hours. The incubated tubes were washed once and phycoerythrin (PE)-labeled detection antibody reagent was added. Samples were again incubated in the dark at room temperature for 1.5 hours. After one final wash, samples were resuspended in 300 uL of wash buffer. Flow cytometer data was acquired using a Becton Dickinson FACSCalibur and analyzed with Becton Dickinson CBA Software.

[6] = Plasma trough concentrations by LC-MS/MS; assay type: in vivo, Macaca fascicularis; conditions: cynomolgus plasma, Compound A i.v. b.i.d.
IL8 = assay: Cytometric Bead Array Human Inflammation Kit, serum/plasma on day of explant: IL8; assay type: in vivo, cynomologous monkeys; conditions: Compound A-treated monkeys
Experimental: as §2
Samples were assayed in the manner described in the manufacturer's protocol booklet; i.e., “Human Inflammation Kit—Instruction Manual” (BD Biosciences, Cat. No. 551811, pdf copy available at www.bdbiosciences.com). Briefly, assay standards were reconstituted with assay diluent and diluted in two fold steps by serial dilution. Capture beads were mixed and distributed into an appropriate number of 12×75 mm polystyrene tubes. Standards or samples were added to the tubes and incubated in the dark at room temperature for 1.5 hours. The incubated tubes were washed once and phycoerythrin (PE)-labeled detection antibody reagent was added. Samples were again incubated in the dark at room temperature for 1.5 hours. […] Flow cytometer data was acquired using a Becton Dickinson FACSCalibur and analyzed with Becton Dickinson CBA Software.

[7] = tested on: cynomolgus cardiac allografts; assay: Cardiac allograft survival / graft function after heterotopic transplantation; assay type: in vivo, Macaca fascicularis
Excerpt: Cynomolgus macaques (Macaca fascicularis), weighing 2.4-4.7 kg, and ranging in estimated age from 2.2-5.5 years were selected as organ recipients. Donors were matched to recipients by AB blood type compatibility as tested by New York University, Nelson Institute of Environmental Medicine, Tuxedo, N.Y. MHC class II mismatch was assured by a stimulation index (SI)>3 in paired animals in unidirectional mixed lymphocyte reaction (MLR) using potential donor lymphocytes as stimulators and potential recipient peripheral blood mononuclear cells (PBMCs) as responders. Animals were matched by assigning pairs with maximal MLR response within groups of blood type compatible animals.
Donor operation: After systemic heparinization (70 units/kg, Elkins-Sinn Inc., Cherry Hill, N.J.) and collection of donor blood during equivolemic saline infusion, diastolic arrest of the donor heart was induced with University of Wisconsin organ preservation solution (15-20 cc/kg, 4° C.) via the aortic root. The heart was explanted and prepared: The mitral valve was rendered incompetent surgically, to prevent left ventricular distention, and an atrial septal defect was created by excising the fossa ovalis, to allow blood entering the left heart through the thebesian circulation to transit to and be ejected from the right heart.
Recipient operation: All recipient animals underwent traditional non-working intraabdominal cardiac allograft transplantation using a single clamp technique, wherein the donor aorta was anastomosed end-to-side to the infrarenal abdominal aorta, and the donor pulmonary artery was anastomosed to the adjacent vena cava. Heparin (70 Units/kg) (a Unit is equivalent to 3 mg/kg of body weight) was administered to the recipient prior to clamp placement. A silicon central venous catheter was introduced via the internal jugular vein, and tunneled to exit between the scapulae. Catheters were attached to swivel connection systems, and animals placed in protective cloth jackets incorporating a swiveling system which protected venous access.
Graft function and body temperature were assessed twice daily by monitoring with a fully implantable telemetry device (Data Sciences International, St. Paul, Minn.) (electrocardiogram (EKG), right ventricular pressure and animal body temperature) implanted at the time of transplantation. Confirmatory abdominal ultrasounds were performed at the time of protocol biopsies and whenever an examiner appreciated decreased contractility, if EKG voltage or rate (<120 beats per minute) was decreased, or if developed pulse pressure (delta P) in the graft was decreased. Cardiac biopsies were performed by protocol on postoperative days 4, 7, 14, through a laparotomy incision using a core biopsy needle. Graft failure was defined as loss of palpable graft activity, with ultrasound confirmation of weak or absent myocardial contractility. Failed grafts were explanted promptly and examined histologically.
Three animals received Compound A as monotherapy at a dose of 5 mg/kg, two animals received Compound A as monotherapy at a dose of 10 mg/kg, and three animals received an equivalent volume of saline (control). Compound A was administered intravenously twice daily at 12 hour intervals (i.e., b.i.d.) starting at transplant. […] The dose on the first day was 12.5 mg/kg, then 10 mg/kg daily for 7 days, then 5 mg/kg daily for 7 days, then 2.5 mg/kg/day until graft rejection or animal sacrifice.

CCR5 receptor = biological target: T1, CCR5 receptor (Macaca fascicularis, UniProt P61814); assay: Receptor occupancy corresponding to plasma concentration; assay type: binding; conditions: at a concentration of 100 nM
T1 construct: endogenous in cells; host or cells: cynomolgus monkey (in vivo, CCR5-bearing leukocytes)

[8] = Homo sapiens, Macrophage, Compound A 10 nM, 24 hours, mean ± SD
[9] = Homo sapiens, Macrophage, Compound A 30 nM, 24 hours, mean ± SD
[10] = Homo sapiens, Macrophage, Compound A 300 nM, 24 hours, mean ± SD

CCn1nc(Cc2ccccc2)cc1C1CCN(C[C@H]2C[C@H](N(C)[C@@H](C(=O)O)C(C)C)C[C@@H]2c2cccc(F)c2)CC1 [Compound A]
IL6 level, Day 0 Post (IL6 [1]; serum post-transplantation, Compound A monotherapy 10 mg/kg/day b.i.d., M308, M627): 63.7 pg/mL and 106.2 pg/mL | IL6 level, Day 0 Pre (IL6 [1]; serum pre-transplantation, animals M308, M627 later given Compound A monotherapy 10 mg/kg/day b.i.d.): 4.6 pg/mL and 3.4 pg/mL | IL6 level, Day 8 (IL6 [1]; serum, Compound A monotherapy 10 mg/kg/day b.i.d., M308): 24.3 pg/mL | malaise ([2]; after cardiac allotransplantation, in contrast to the five control animals): not to exhibit malaise | symptoms of abdominal tenderness ([2]; after transplant and during rejection of the graft): did not exhibit any symptoms of abdominal tenderness | recovery from surgery (how quickly normal activity levels resumed) ([2]; despite additional procedures on days 4 and 7-8): recovered more quickly from surgery | average temperature ([2]; first three days after allograft implantation, six of the seven animals treated with Compound A (5 or 10 mg/kg b.i.d. i.v., alone or with CsA)): below 37.5 °C | average temperature difference versus control monkeys (saline, no immunosuppressive therapy) ([2]; first three days after surgery): about one degree lower | average temperature difference versus cyclosporin-only-treated animals ([2]; first three days after surgery): one half degree lower; also recorded: about 0.5 °C | average temperature over the first three days after surgery ([2]; monkeys with cardiac allografts, control (saline) ca. 38.5° C.): circa 37.5 °C | animals in which individual temperature elevations reached 38.5° C. on any occasion ([2]; of the seven animals treated with Compound A): 3 | monkeys that did not develop a fever (temperature greater than 38.5° C.) [2]: six of seven | monkeys that did not develop a fever (temperature greater than 38.5° C.) ([2]; listed as CCR5 antagonist): Six out of the seven | inhibition at 0.003 µM ([3]; Homo sapiens, Macrophage, Compound A 3 nM, 24 hours): 43% | inhibition at 0.01 µM [3, 8]: 16.1% | inhibition at 0.03 µM [3, 9]: 65.9% | inhibition at 0.1 µM ([3]; Homo sapiens, Macrophage, Compound A 100 nM, 24 hours): 67.1% | inhibition at 0.3 µM [3, 10]: 85.9% | effect on IL6 mRNA up-regulation by RANTES ([3]; human macrophages): diminish IL1-β and IL6 up-regulation significantly; also recorded: dose-dependent | Infiltration of CCR5+ cells into cardiac allografts (CCR5+ cells): inhibited | inhibition at 0.003 µM ([4]; Homo sapiens, Macrophage, Compound A 3 nM, 24 hours, mean ± SD): 37.6% | inhibition at 0.01 µM [4, 8]: 50.1% | inhibition at 0.03 µM [4, 9]: 59% | inhibition at 0.1 µM ([4]; Homo sapiens, Macrophage, Compound A 100 nM, 24 hours, mean ± SD): 76.8% | inhibition at 0.3 µM [4, 10]: 80.6% | effect on IL1-β mRNA up-regulation by RANTES ([4]; human macrophages): diminish IL1-β and IL6 up-regulation significantly; also recorded: dose-dependent | IL6 on day of explant (IL6 [5]; M308, Compound A monotherapy at 10 mg/kg/day b.i.d., explant day 8): 58 pg/mL | IL6 on day of explant (IL6 [5]; M627, Compound A 10 mg/kg b.i.d., steroid rescue day 9, combined therapy with CsA 43 days, Compound A monotherapy from day 52, explant day 85): 20 pg/mL | IL6 cytokine levels at the time of graft rejection relative to monkeys treated only with CsA (IL6 [5]; monkeys treated with Compound A): suppressed | trough plasma concentration (levels fell below target range at trough) [6]: < 100 nM | IL8 cytokine levels at the time of graft rejection relative to CsA-only treated monkeys (IL8): did not indicate suppression of IL8 levels | Graft survival ([7]; Compound A monotherapy 5 mg/kg i.v. b.i.d., n=3, controls 6±0.4 days (n=7), p=0.05): 8.3 ± 0.6 days | Explant Day (day of graft rejection) ([7]; M308, Compound A monotherapy at 10 mg/kg/day b.i.d.): 8 | Explant Day (day of graft rejection) ([7]; M627, Compound A 10 mg/kg b.i.d., rescued day 9 with bolus steroids, combined therapy with CsA 43 days, from day 52 Compound A monotherapy): 85 | day to which vigorous graft function persisted ([7]; one animal: Compound A alone 10 mg/kg b.i.d., rescued day 9 with bolus steroids, combined therapy with CsA 43 days, CsA stopped day 52, Compound A continued): 83 days and 78 days | receptor occupancy at 0.1 µM (CCR5 receptor): ~90%

Reference: patent US20050079176A1, “Treating stress response with chemokine receptor ccr5 modulators” (priority 2002, published 2005)
